Values of other authors in US20200397766A1, “POROUS EMBOLIZATION MICROSPHERES COMPRISING DRUGS” (VAN RIJN BEHEER B.V., priority 2018, published 2020).

## OCCN(CCO)c1nc(N2CCCCC2)c2nc(N(CCO)CCO)nc(N3CCCCC3)c2n1 [Dipyridamole, dipyridamole]
DMSO
  solubility in DMSO: high solubility in DMSO
water
  solubility in water: low solubility in water
